Measured values published in patent US8735423B2, “Bicyclic compounds as α4β2 nicotinic acetylcholine receptor ligands” (priority 2009, dated 2014).
Like-named read-outs stand apart in the source and are kept apart here.

How the values were obtained:
[1] = target: T1, recombinant human α4β2 nicotinic acetylcholine receptor (Homo sapiens, UniProt P17787+P43681); experiment: Determination of IC50 and Kb values, aequorin luminescence assay in CHO cells; format: cell-based; settings: antagonist mode, fixed concentration of agonist epibatidine, CHO cells, luminescence; read-out: Kb
T1 construct: expressed in transfected cells
Experimental: Determination of IC50 and Kb Values for Nicotinic Acetylcholine α4β2 Receptor Ligands
A stable CHO cell line expressing recombinant human α4β2 nicotinic acetylcholine receptor transiently expressing aequorin protein was used for cell-based assay. The assay offers a non-radioactive based approach to determine binding of a compound to ligand gated ion channels. In this specific assay, the level of intracellular calcium which is modulated by activation or inhibition of the channel is measured. Both the channel and aequorin genes are expressed at high level under the control of powerful CMV promotor.
The above cells were grown in 96 well clear bottom white plates in Hams F12 medium containing 10% fetal bovine serum (FBS). Prior to the addition of compounds and/or agonist, cells were serum starved for six hours. Coelentarazine (a prosthetic group for aequorin protein) was added in the medium containing 0.1% dialyzed serum and incubated overnight at 27° C. Cells were washed with assay buffer and increasing concentration of the test compound or standard were added to the plate for antagonist mode. A fixed concentration of the agonist (eipbatidine) was injected into the plate and luminescence was measured for 10 seconds. For evaluation of the compound in agonist mode, increasing concentration of the standard or test compound was injected and the luminescence was measured. Luminescence units were plotted against the compound concentrations using Graphpad software. IC50 values of the compounds were defined as the concentration required in reducing the luminescent units by 50%. The Kb values were calculated by feeding the concentration of the agonist used in the assay and its EC50 value in the same software.
Literature References: Karadsheh M. S., Shah M. S., Tang X., Macdonald R. L. and Stitzel J. A. Functional characterization of mouse α4β2 nicotinic acetylcholine receptors stably expressed in HEK293T cells. J. Neurochem. 2004, 91, 1138-1150.

[2] = Rodent Brain Penetration Study; settings: in vivo, Wistar rat male, P.O, read-out: Steady State Brain Penetration (Cb/Cp)
Experimental: Rodent Brain Penetration Study
Male Wistar rats (230-280 grams) obtained from NIN (National Institute of Nutrition, Hyderabad, India) was used as an experimental animal. Three animals were housed in each cage. Animals were given water and food ad libitum throughout the experiment, and maintained on a 12 hours light/dark cycle.
NCE compound was dissolved in water and administered orally. At Tmax (0.5, 1.0 and 2.0) animals were sacrificed to collect the plasma and brain tissue and was homogenized. Plasma and Brain was stored frozen at −20° C. until analysis. The concentrations of the NCE compound in plasma and Brain were determined using LC-MS/MS method.
The NCE compounds were quantified in plasma and brain homogenate by validated LC-MS/MS method using solid phase extraction technique. NCE compounds were quantified in the calibration range of 1-500 ng/mL in plasma and brain homogenate. Study samples were analyzed using calibration samples in the batch and quality control samples spread across the batch. Extents of brain-blood ratio were calculated (Cb/Cp).

[3] = tested on: Male Wistar rats; experiment: Acute Food Intake Study (animal model of hyperphagia); format: in vivo; settings: rat, oral
Experimental: The appetite suppressing properties of compounds of this invention were studied using an animal model of hyperphagia.
Male Wistar rats (200-210 grams) obtained from Raj Biotech, India were used as experimental animals. The experiment consisted of 6 days. The rats were adapted to the 18 hour fasting and 6 hour feeding pattern. The animals were housed in a group of three in the cages provided with the fasting grills and were fasted for 18 hours. After 18 hour fasting the rats were separated and placed individually in a cage. Weighed amount of feed was provided to rats for 6 hour and the feed intake at 1, 2, 4 and 6 hours was recorded. Again the rats were regrouped and fasted for 18 hour. The above procedure was followed for 5 days. The average cumulative food intake by the rats on the last 3 days was calculated. Animals were randomised on the basis of their last three days food intake.
One group of 8 rats received vehicle (2 mL/Kg) orally and another set of animals received compound of the formula (I) orally. Then the rats were given access to food and the food intake at 1, 2, 4 and 6 hours was recorded. The food intake by the rats treated with test compound was compared with the vehicle treated group by using students ‘t’ test.
Following compound shown positive effects indicating the suppression of food intake i.e. hypophagia like effects.

[4] = tested on: High Fat Fed Rats; experiment: Effect of Test Compounds on Body Weight Gain in High Fat Fed Rats; format: in vivo, rat; settings: high fat diet fed Sprague Dawley rats, oral for 14 days
Excerpt: Effect of Test Compounds on Body Weight Gain in High Fat Fed Rats
The body weight gain suppressing properties of compounds of this invention were studied using a animal model of obesity.
Male Sprague Dawley rats (150-160 grams) obtained from Reliance Life Sciences, India were used as experimental animals. Rats were fed with control diet (normal pellet diet) and lard based high fat diet (45% kcal diet) for 7-8 weeks. High fat diet fed animals was randomized according to their body weights. The animals were housed in a group of 3-4 per cage. One group of 10 rats received vehicle (2 mL/Kg) orally and another set of animals received compound of the formula (I) orally for 14 days. Body weight of the animals was recorded for first three consecutive days then it was recorded twice weekly. Weighed amount of food was given to the animals and food intake was recorded every 24 hour for the entire study period.
Following compound shown positive effects indicating the decrease in the body weight gain.

[5] = tested on: Male Sprague Dawley rats; experiment: DRL-72s model of animal depression; format: in vivo; settings: rat
Experimental: The antidepressant properties of compounds of this invention were evaluated using a model of animal depression: the DRL-72s model. Male Sprague Dawley rats were used as experimental animals. Rats are trained to lever press for a 4″ access to 0.025 mL of water for each correct response during daily 60 minute sessions. All testing takes place on weekdays only. At the beginning of each session, the house light is illuminated and remains lit until the session ends. No other stimuli are presented during testing. After successful lever press training, rats are then required to respond under a DRL-24 second schedule, where only lever presses that are separated by 24 seconds are reinforced. Upon stable responding on a DRL-24 second schedule (5-10 sessions), rats are trained on a DRL-72 second schedule until responding stabilizes at approximately 15% efficiency (approx 25-35 sessions). Specifically, rats receive a reinforcer for each response that is emitted at least 72 seconds after the previous response (IRT). […] Efficiency is recorded as number of reinforced responses÷total number of responses. After stable baseline responding is achieved, defined as responding for 4 consecutive sessions with no more than 10% variability, animals begin drug testing. Animals receive drug no more than 1× per week.

T1 sequence (P43681 29-627): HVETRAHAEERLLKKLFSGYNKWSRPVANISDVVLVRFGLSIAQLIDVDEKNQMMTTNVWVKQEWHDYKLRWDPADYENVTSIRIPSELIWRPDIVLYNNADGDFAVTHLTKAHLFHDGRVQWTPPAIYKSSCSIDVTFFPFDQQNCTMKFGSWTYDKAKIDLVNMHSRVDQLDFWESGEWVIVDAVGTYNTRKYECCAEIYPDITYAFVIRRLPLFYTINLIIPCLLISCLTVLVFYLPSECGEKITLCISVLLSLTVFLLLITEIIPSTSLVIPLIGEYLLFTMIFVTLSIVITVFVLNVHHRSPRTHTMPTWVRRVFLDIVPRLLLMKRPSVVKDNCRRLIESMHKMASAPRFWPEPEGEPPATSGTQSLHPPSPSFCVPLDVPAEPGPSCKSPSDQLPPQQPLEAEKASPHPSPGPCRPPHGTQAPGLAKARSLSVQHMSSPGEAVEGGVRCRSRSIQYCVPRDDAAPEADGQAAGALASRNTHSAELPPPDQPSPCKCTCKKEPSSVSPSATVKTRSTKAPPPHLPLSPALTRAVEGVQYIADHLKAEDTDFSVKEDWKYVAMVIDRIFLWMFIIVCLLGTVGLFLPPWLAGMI
T1 sequence (P17787 26-502): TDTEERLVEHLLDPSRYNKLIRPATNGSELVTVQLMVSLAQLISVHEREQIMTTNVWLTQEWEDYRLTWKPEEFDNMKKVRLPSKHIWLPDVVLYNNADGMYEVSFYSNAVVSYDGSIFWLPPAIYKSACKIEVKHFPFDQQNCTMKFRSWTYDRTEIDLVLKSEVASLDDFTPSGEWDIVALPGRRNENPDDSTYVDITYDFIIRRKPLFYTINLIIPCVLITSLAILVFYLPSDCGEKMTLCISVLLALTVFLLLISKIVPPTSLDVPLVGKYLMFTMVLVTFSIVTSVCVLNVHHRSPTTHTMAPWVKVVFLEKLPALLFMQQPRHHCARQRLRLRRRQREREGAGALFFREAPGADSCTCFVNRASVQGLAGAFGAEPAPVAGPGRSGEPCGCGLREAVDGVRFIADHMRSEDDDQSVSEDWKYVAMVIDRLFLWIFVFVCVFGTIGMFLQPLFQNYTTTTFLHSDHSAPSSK

SMILES	Kb [1]	Kp ([2]; 5 mg/kg)	Inference [3]	% Suppression of food intake compared to vehicle ([3]; 1 Hour)	% Suppression of food intake compared to vehicle ([3]; 2 Hour)	% Suppression of food intake compared to vehicle ([3]; 4 Hour)	% Suppression of food intake compared to vehicle ([3]; 6 Hour)	% Reduction in body weight gain compared to vehicle (Day 14) [4]	Inference [4]	Dose mg/kg, p.o. (DRL-72s) [5]	Kp ([2]; 15 mg/kg)
Cl.Cl.Clc1cncc(OCC2CC3CC3N2)c1 (stereo not drawn) [Example 7, 3-(5-Chloropyridin-3-yloxymethyl)-2-azabicyclo[3.1.0]hexane dihydrochloride]	17.8 nM	3.79 ± 0.66									
Cl.c1cncc(OCC2CC3CC3N2)c1 (stereo not drawn) [Example 1, 3-(Pyridin-3-yloxymethyl)-2-azabicyclo[3.1.0]hexane hydrochloride]	7.1 nM		Active	32.25%	25.40%	23.08%	15.37%	3.6%	Active	≦10 mg/kg, p.o.	3.8 ± 0.289
